# According to US12331040B2 (Karyopharm Therapeutics Inc., priority 2013, dated 2025):
# Read-outs that look alike come from different tables or passages of the source.
# Experiments:
# Assay in all cases: MTT cell proliferation assay
# Format in all cases: cell-based
# [1] = test system: 3T3 cells; details: Mus musculus, NIH3T3, approximately 64-72 hours incubation
# Summary of the method: (§1)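 Cytotoxicity was measured by MTT: OD490 of the solubilized formazan after roughly 4 h with MTT reagent, reported as mean percent inhibition relative to the negative control. Test compounds covered eight concentrations between 1 nM and 30 μM, added to 5,000–10,000 cells per well that had attached overnight.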
# [2] = test system: Z138 cells; details: Homo sapiens, Z-138, Z138 cells, approximately 64-72 hours incubation
# Summary of the method: as §1
# [3] = test system: MS751 cells; details: Homo sapiens, MS751, MS751 cells, approximately 64-72 hours incubation
# Summary of the method: as §1
# [4] = read-out: MTT Assay IC50 MS-751
# [5] = read-out: MTT Assay IC50, Z-138
# [6] = read-out: MTT Assay IC50, MS-751
SMILES,IC50 ([1]; read-out: MTT Assay IC50 3T3),IC50 ([2]; read-out: MTT Assay IC50 Z-138),"IC50 [3, 4]","IC50 ([1]; read-out: MTT Assay IC50, 3T3)","IC50 [2, 5]","IC50 [3, 6]"
"Nc1ccc(/C=C/C(=O)NCc2cc3cc(-c4ccc(F)c(C(=O)N5CCOCC5)c4)cc(C(F)(F)F)c3o2)cn1 [Compound 563, (E)-3-(6-aminopyridin-3-yl)-N-((5-(4-fluoro-3-(morpholine-4-carbonyl)phenyl)-7-(trifluoromethyl)benzofuran-2-yl)methyl)acrylamide]",> 10 µM,< 0.1 µM,0.1 to 5 µM,–,–,–
"CC(=O)c1ccc(-c2ccc3oc(CNC(=O)/C=C/c4ccc(N)nc4)cc3c2)s1 [Compound 503, (E)-N-((5-(5-acetylthiophen-2-yl)benzofuran-2-yl)methyl)-3-(6-aminopyridin-3-yl)acrylamide]",> 10 µM,> 10 µM,0.1 to 5 µM,–,–,–
"Nc1ccc(/C=C/C(=O)NCc2cc3cc(-c4ccc(C(=O)N5CCC(F)(F)CC5)cc4F)cc(-c4cccc(F)c4)c3o2)cn1 [Compound 755, (E)-3-(6-aminopyridin-3-yl)-N-((5-(4-(4,4-difluoropiperidine-1-carbonyl)-2-fluorophenyl)-7-(3-fluorophenyl)benzofuran-2-yl)methyl)acrylamide]",–,–,–,0.1 to 5 µM,< 0.1 µM,0.1 to 5 µM
"Nc1ccc(/C=C/C(=O)NCc2cc3cc(-c4ccc(C(=O)N5CC6CC6C5)cn4)cc(C(F)(F)F)c3o2)cn1 (stereo not drawn) [Compound 623, (E)-N-((5-(5-(3-azabicyclo[3.1.0]hexane-3-carbonyl)pyridin-2-yl)-7-(trifluoromethyl)benzofuran-2-yl)methyl)-3-(6-aminopyridin-3-yl)acrylamide]",> 10 µM,0.1 to 5 µM,0.1 to 5 µM,–,–,–
"Nc1ccc(/C=C/C(=O)NCc2cc3cc(-c4ccc(C(=O)N5CCC(F)(F)CC5)cn4)cc(-c4ccc(F)cc4F)c3o2)cn1 [Compound 710, (E)-3-(6-aminopyridin-3-yl)-N-((7-(2,4-difluorophenyl)-5-(5-(4,4-difluoropiperidine-1-carbonyl)pyridin-2-yl)benzofuran-2-yl)methyl)acrylamide]",–,–,–,0.1 to 5 µM,< 0.1 µM,< 0.1 µM
"Nc1ccc(/C=C/C(=O)NCc2cc3cc(-c4ccc(C(O)c5ccc(F)cc5)cn4)cc(-c4ccc(F)cc4)c3o2)cn1 (stereo not drawn) [Compound 704, (E)-3-(6-aminopyridin-3-yl)-N-((7-(4-fluorophenyl)-5-(5-((4-fluorophenyl)(hydroxy)methyl)pyridin-2-yl)benzofuran-2-yl)methyl)acrylamide]",–,–,–,> 10 µM,0.1 to 5 µM,0.1 to 5 µM
"Nc1ccc(/C=C/C(=O)NCc2cc3cccc(-c4ccc(C(=O)N5CCOCC5)cc4)c3o2)cn1 [Compound 559, (E)-3-(6-aminopyridin-3-yl)-N-((7-(4-(morpholine-4-carbonyl)phenyl)benzofuran-2-yl)methyl)acrylamide]",0.1 to 5 µM,< 0.1 µM,< 0.1 µM,–,–,–
"CC1(F)CCN(C(=O)c2ccc(-c3cc(C(F)(F)F)c4oc(CNC(=O)/C=C\c5ccc(N)nc5)cc4c3)nc2)C1 (single isomer, unassigned) [Compound 656, (Z)-3-(6-aminopyridin-3-yl)-N-((5-(5-(3-fluoro-3-methylpyrrolidine-1-carbonyl)pyridin-2-yl)-7-(trifluoromethyl)benzofuran-2-yl)methyl)acrylamide]",> 10 µM,0.1 to 5 µM,5 to 10 µM,–,–,–
"CN1CCN(C(=O)c2ccc(-c3cc(C(F)(F)F)c4oc(CNC(=O)/C=C/c5ccc(N)nc5)cc4c3)nc2)CC1 [Compound 565, (E)-3-(6-aminopyridin-3-yl)-N-((5-(5-(4-methylpiperazine-1-carbonyl)pyridin-2-yl)-7-(trifluoromethyl)benzofuran-2-yl)methyl)acrylamide]",0.1 to 5 µM,< 0.1 µM,< 0.1 µM,–,–,–
"CC1(F)CCN(C(=O)c2ccc(-c3cc(C(F)(F)F)c4oc(CNC(=O)/C=C/c5ccc(N)nc5)cc4c3)cc2)C1 (single isomer, unassigned) [Compound 715, (E)-3-(6-aminopyridin-3-yl)-N-((5-(4-(3-fluoro-3-methylpyrrolidine-1-carbonyl)phenyl)-7-(trifluoromethyl)benzofuran-2-yl)methyl)acrylamide]",–,–,–,> 10 µM,0.1 to 5 µM,0.1 to 5 µM
O=C(/C=C/c1cccnc1)NCc1cc2cc(-c3ccc(C(=O)N4CCC(F)(F)CC4)cn3)cc(-c3ccncc3)c2o1 [Compound 674],–,–,–,< 0.1 µM,< 0.1 µM,< 0.1 µM
"CC1(O)CN(C(=O)c2ccc(-c3cc(C(F)(F)F)c4oc(CNC(=O)/C=C/c5ccc(N)nc5)cc4c3)nc2)C1 [Compound 621, (E)-3-(6-aminopyridin-3-yl)-N-((5-(5-(3-hydroxy-3-methylazetidine-1-carbonyl)pyridin-2-yl)-7-(trifluoromethyl)benzofuran-2-yl)methyl)acrylamide]",> 10 µM,0.1 to 5 µM,0.1 to 5 µM,–,–,–
"Nc1ccc(/C=C/C(=O)NCc2cc3cc(-c4ccc(C(=O)C(=O)N5CCOCC5)cc4)cc(Cl)c3o2)cn1 [Compound 545, (E)-3-(6-Aminopyridin-3-yl)-N-((7-chloro-5-(4-(2-morpholino-2-oxoacetyl)phenyl)benzofuran-2-yl)methyl)acrylamide]",5 to 10 µM,0.1 to 5 µM,0.1 to 5 µM,–,–,–
"Nc1ccc(/C=C/C(=O)NCc2cc3cc(-c4ccc(C(=O)N5CCOCC5)c(F)c4F)cc(Cl)c3o2)cn1 [Compound 548, (E)-3-(6-aminopyridin-3-yl)-N-((7-chloro-5-(2,3-difluoro-4-(morpholine-4-carbonyl)phenyl)benzofuran-2-yl)methyl)acrylamide]",> 10 µM,0.1 to 5 µM,0.1 to 5 µM,–,–,–
"Nc1ccc(/C=C/C(=O)NCc2cc3cc(-c4ccc(C(=O)N5CCCNCC5)cc4)cc(C(F)(F)F)c3o2)cn1 [Compound 573, (E)-N-((5-(4-(1,4-diazepane-1-carbonyl)phenyl)-7-(trifluoromethyl)benzofuran-2-yl)methyl)-3-(6-aminopyridin-3-yl)acrylamide]",> 10 µM,< 0.1 µM,< 0.1 µM,–,–,–
"Nc1ccc(/C=C/C(=O)NCc2cc3cc(-c4ccc(C(=O)N5CCC(F)(F)CC5)cn4)c(C(F)(F)F)cc3o2)cn1 [Compound 664, (E)-3-(6-aminopyridin-3-yl)-N-((5-(5-(4,4-difluoropiperidine-1-carbonyl)pyridin-2-yl)-6-(trifluoromethyl)benzofuran-2-yl)methyl)acrylamide]",–,–,–,> 10 µM,> 10 µM,> 10 µM
"Nc1ccc(/C=C/C(=O)NCc2cc3cc(-c4ccc(C(=O)N5CCC(F)(F)CC5)cc4F)cc(C(F)(F)F)c3o2)cn1 [Compound 683, (E)-3-(6-aminopyridin-3-yl)-N-((5-(4-(4,4-difluoropiperidine-1-carbonyl)-2-fluorophenyl)-7-(trifluoromethyl)benzofuran-2-yl)methyl)acrylamide]",–,–,–,> 10 µM,0.1 to 5 µM,0.1 to 5 µM
"CC1(O)CCN(C(=O)c2ccc(-c3cc(C(F)(F)F)c4oc(CNC(=O)/C=C/c5ccc(N)nc5)cc4c3)nc2)CC1 [Compound 620, (E)-3-(6-aminopyridin-3-yl)-N-((5-(5-(4-hydroxy-4-methylpiperidine-1-carbonyl)pyridin-2-yl)-7-(trifluoromethyl)benzofuran-2-yl)methyl)acrylamide]",> 10 µM,< 0.1 µM,< 0.1 µM,–,–,–
"Nc1ccc(/C=C/C(=O)NCc2cc3cc(-c4ccc(C(=O)N5CC[C@H](F)C5)cc4)cc(Cl)c3o2)cn1 [Compound 528, (S,E)-3-(6-aminopyridin-3-yl)-N-((7-chloro-5-(4-(3-fluoropyrrolidine-1-carbonyl)phenyl)benzofuran-2-yl)methyl)acrylamide]",> 10 µM,> 10 µM,> 10 µM,–,–,–
"C[C@H]1COCCN1C(=O)c1ccc(-c2cc(Cl)c3oc(CNC(=O)/C=C/c4ccc(N)nc4)cc3c2)cc1 [Compound 515, (S,E)-3-(6-aminopyridin-3-yl)-N-((7-chloro-5-(4-(3-methylmorpholine-4-carbonyl)phenyl)benzofuran-2-yl)methyl)acrylamide]",> 10 µM,0.1 to 5 µM,0.1 to 5 µM,–,–,–
"[2H]C([2H])([2H])Oc1cc(-c2ccc(C(=O)N3CCC(F)(F)CC3)cn2)cc2cc(CNC(=O)/C=C/c3ccc(N)nc3)oc12 [Compound 660, (E)-3-(6-aminopyridin-3-yl)-N-((5-(5-(4,4-difluoropiperidine-1-carbonyl)pyridin-2-yl)-7-(methoxy-d3)benzofuran-2-yl)methyl)acrylamide]",–,–,–,> 10 µM,< 0.1 µM,< 0.1 µM
"Nc1ccc(/C=C/C(=O)NCc2cc3cc(-c4ccc(C(=O)N5CCC(F)(F)CC5)cc4)cc(-c4cc(Cl)c(F)cc4F)c3o2)cn1 [Compound 698, (E)-3-(6-aminopyridin-3-yl)-N-((7-(5-chloro-2,4-difluorophenyl)-5-(4-(4,4-difluoropiperidine-1-carbonyl)phenyl)benzofuran-2-yl)methyl)acrylamide]",–,–,–,0.1 to 5 µM,< 0.1 µM,< 0.1 µM
"Nc1ccc(/C=C/C(=O)NCc2cc3cc(-c4ccc(C(=O)N5CCC(F)(F)CC5)cc4F)cc(-c4ccc(F)cc4F)c3o2)cn1 [Compound 753, (E)-3-(6-aminopyridin-3-yl)-N-((7-(2,4-difluorophenyl)-5-(4-(4,4-difluoropiperidine-1-carbonyl)-2-fluorophenyl)benzofuran-2-yl)methyl)acrylamide]",–,–,–,0.1 to 5 µM,< 0.1 µM,< 0.1 µM
